This is an account of results in patent publication US20260125382A1, “COMPOUNDS FOR INHIBITING OR DEGRADING CDK2 AND/OR CDK9 AND MEDICINAL USE THEREOF” (KOREA RESEARCH INSTITUTE OF CHEMICAL TECHNOLOGY, priority 2022, published 2026).

In test [1] the target is T1, CDK2 (Homo sapiens, UniProt P24941).
T1 construct: endogenous in cells; host or cells: MDA-MB-231
Nature of the test: CDK protein degradation activity (Western blotting), CDK2. Conditions: MDA-MB-231 cells, 16 hours, Western blot. In kind it is cell-based. In outline:
(§1)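 MDA-MB-231 cells treated 16 h with compound at 100 nM, 1 μM or 10 μM, with DMSO as control. Lysates run on SDS-PAGE and immunoblotted for CDK2, CDK9 and tubulin; band levels quantified by densitometry.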

Test [2] has as its target T2, CDK9 (Homo sapiens, UniProt P50750).
T2 construct: endogenous in cells; host or cells: MDA-MB-231
Briefly: CDK protein degradation activity (Western blotting), CDK9. Type of test: cell-based. Conditions: MDA-MB-231 cells, 16 hours, Western blot. In outline: as §1
On the technique in general: Immunoblotting shows a protein as a band on a membrane.

T2 sequence (P50750 whole entry): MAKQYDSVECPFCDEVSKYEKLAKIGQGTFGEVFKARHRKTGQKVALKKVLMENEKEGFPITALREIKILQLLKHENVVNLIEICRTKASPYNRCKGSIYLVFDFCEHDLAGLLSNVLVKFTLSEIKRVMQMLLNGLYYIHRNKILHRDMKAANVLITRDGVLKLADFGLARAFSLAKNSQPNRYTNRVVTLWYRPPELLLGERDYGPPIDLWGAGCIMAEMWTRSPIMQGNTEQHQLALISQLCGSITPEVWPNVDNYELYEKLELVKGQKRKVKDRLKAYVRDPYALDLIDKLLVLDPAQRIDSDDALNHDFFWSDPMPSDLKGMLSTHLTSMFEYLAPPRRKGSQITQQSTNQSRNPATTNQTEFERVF

As to `Cc1cccc(C(=O)NC2CC(n3cnc4c(Nc5ccc(N6CCN(CC7CCN(C(=O)COc8ccc([C@@H]9CCC(=O)NC9=O)cc8)CC7)CC6)cc5)ncnc43)C2)n1` (stereo partly drawn) [Compound 443, N-((1s,3s)-3-(6-((4-(4-((1-(2-(4-(2,6-dioxopiperidin-3-yl)phenoxy)acetyl)piperidin-4-yl)methyl)piperazin-1-yl)phenyl)amino)-9H-purin-9-yl)cyclobutyl)-6-methylpicolinamide], in test [1], the “Enzyme degradation CDK2 (% remaining) @ 0.1 μM” value is recorded as 20/20/20%, the “Enzyme degradation CDK2 (% remaining) @ 1 μM” value is recorded as 20/20/20% and the “Enzyme degradation CDK2 (% remaining) @ 10 μM” value is reported as 20/20/20%. In test [2], the “Enzyme degradation CDK9 (% remaining) @ 0.1 μM” value is recorded as 0/0/0%, the “Enzyme degradation CDK9 (% remaining) @ 1 μM” value is on record as 0/0/0% and the “Enzyme degradation CDK9 (% remaining) @ 10 μM” value is given as 0/0/0%.

For the compound `N#Cc1cccc(C(=O)N[C@H]2C[C@@H](n3cnc4c(Nc5ccc(N6CCN(CC7CCN(c8ccc9c(c8)CN(C8CCC(=O)NC8=O)C9=O)CC7)CC6)cc5)ncnc43)C2)n1` (stereo partly drawn) [Compound 441, 6-cyano-N-((1s,3s)-3-(6-((4-(4-((1-(2-(2,6-dioxopiperidin-3-yl)-1-oxoisoindolin-5-yl)piperidin-4-yl)methyl)piperazin-1-yl)phenyl)amino)-9H-purin-9-yl)cyclobutyl)picolinamide], in test [1], the “Enzyme degradation CDK2 (% remaining) @ 0.1 μM” value amounted to 30%, the “Enzyme degradation CDK2 (% remaining) @ 1 μM” value amounted to 30% and the “Enzyme degradation CDK2 (% remaining) @ 10 μM” value was 40%. Further, in test [2], the “Enzyme degradation CDK9 (% remaining) @ 0.1 μM” value is recorded as 10/10/10%, the “Enzyme degradation CDK9 (% remaining) @ 1 μM” value was 10/10/10% and the “Enzyme degradation CDK9 (% remaining) @ 10 μM” value is recorded as 10/10/10%.

As for `O=C1CC[C@H](N2C(=O)c3cc(F)c(N4CCC(CCCN5CCN(c6ccc(Nc7ncnc8c7ncn8[C@H]7C[C@@H](NC(=O)Cc8ccccc8)C7)cc6)CC5)CC4)cc3C2=O)C(=O)N1` [Compound 458, N-((1s,3s)-3-(6-((4-(4-(3-(1-(2-(2,6-dioxopiperidin-3-yl)-6-fluoro-1,3-dioxoisoindolin-5-yl)piperidin-4-yl)propyl)piperazin-1-yl)phenyl)amino)-9H-purin-9-yl)cyclobutyl)-2-phenylacetamide], in test [1], the “Enzyme degradation CDK2 (% remaining) @ 0.1 μM” value is given as 50/50/50%, the “Enzyme degradation CDK2 (% remaining) @ 1 μM” value is on record as 50/50/50% and the “Enzyme degradation CDK2 (% remaining) @ 10 μM” value is recorded as 50/50/50%. For the same compound, in test [2], the “Enzyme degradation CDK9 (% remaining) @ 0.1 μM” value is 10%, the “Enzyme degradation CDK9 (% remaining) @ 1 μM” value is 10% and the “Enzyme degradation CDK9 (% remaining) @ 10 μM” value turned out to be 20%.

Take `Cc1cccc(C(=O)NC2CC(n3cnc4c(NCCC5CCN(CC6CCN(c7ccc8nnn([C@H]9CCC(=O)NC9=O)c(=O)c8c7)CC6)CC5)ncnc43)C2)n1` (stereo partly drawn) [Compound 304, N-((1s,3s)-3-(6-((2-(1-((1-(3-(2,6-dioxopiperidin-3-yl)-4-oxo-3,4-dihydrobenzo[d][1,2,3]triazin-6-yl)piperidin-4-yl)methyl)piperidin-4-yl)ethyl)amino)-9H-purin-9-yl)cyclobutyl)-6-methylpicolinamide]: in test [1], the “Enzyme degradation CDK2 (% remaining) @ 0.1 μM” value came out at 20%, the “Enzyme degradation CDK2 (% remaining) @ 1 μM” value was 30% and the “Enzyme degradation CDK2 (% remaining) @ 10 μM” value came out at 50%. Moreover, in test [2], the “Enzyme degradation CDK9 (% remaining) @ 0.1 μM” value is 20%, the “Enzyme degradation CDK9 (% remaining) @ 1 μM” value is reported as 0% and the “Enzyme degradation CDK9 (% remaining) @ 10 μM” value turned out to be 0%.

Turning to `O=C1CC[C@H](N2C(=O)c3ccc(N4CCC(C(=O)N5CCC(CN6CCC(CCNc7ncnc8c7ncn8[C@H]7C[C@@H](NC(=O)Cc8ccccc8)C7)CC6)CC5)CC4)cc3C2=O)C(=O)N1` [Compound 421, N-((1s,3s)-3-(6-((2-(1-((1-(1-(2-(2,6-dioxopiperidin-3-yl)-1,3-dioxoisoindolin-5-yl)piperidin-4-carbonyl)piperidin-4-yl)methyl)piperidin-4-yl)ethyl)amino)-9H-purin-9-yl)cyclobutyl)-2-phenylacetamide], in test [1], the “Enzyme degradation CDK2 (% remaining) @ 0.1 μM” value is reported as 60/60/60%, the “Enzyme degradation CDK2 (% remaining) @ 1 μM” value is listed as 60/60/60% and the “Enzyme degradation CDK2 (% remaining) @ 10 μM” value was 60/60/60%. In test [2], the “Enzyme degradation CDK9 (% remaining) @ 0.1 μM” value was 0/0/0%, the “Enzyme degradation CDK9 (% remaining) @ 1 μM” value is recorded as 0/0/0% and the “Enzyme degradation CDK9 (% remaining) @ 10 μM” value was 0/0/0%.

On to `O=C1CCC(c2ccc(OCC(=O)N3CCC(CCN4CCN(c5ccc(Nc6ncnc7c6ncn7[C@H]6C[C@@H](NC(=O)c7c(Cl)cccc7Cl)C6)cc5)CC4)CC3)cc2)C(=O)N1` (stereo partly drawn) [Compound 434, 2,6-dichloro-N-((1s,3s)-3-(6-((4-(4-(2-(1-(2-(4-(2,6-dioxopiperidin-3-yl)phenoxy)acetyl)piperidin-4-yl)ethyl)piperazin-1-yl)phenyl)amino)-9H-purin-9-yl)cyclobutyl)benzamide], for which, in test [1], the “Enzyme degradation CDK2 (% remaining) @ 0.1 μM” value came to 50%, the “Enzyme degradation CDK2 (% remaining) @ 1 μM” value stood at 70% and the “Enzyme degradation CDK2 (% remaining) @ 10 μM” value worked out at 80%. For the same compound, in test [2], the “Enzyme degradation CDK9 (% remaining) @ 0.1 μM” value is given as 10/10/10%, the “Enzyme degradation CDK9 (% remaining) @ 1 μM” value was 10/10/10% and the “Enzyme degradation CDK9 (% remaining) @ 10 μM” value was 10/10/10%.

As to `O=C1CC[C@H](N2C(=O)c3cc(F)c(N4CCC(C(=O)N5CCC(CN6CCN(c7ccc(Nc8ncnc9c8ncn9C8CC(NC(=O)c9cccc(Cl)n9)C8)cc7)CC6)CC5)CC4)cc3C2=O)C(=O)N1` (stereo partly drawn) [Compound 453, 6-chloro-N-((1s,3s)-3-(6-((4-(4-((1-(1-(2-(2,6-dioxopiperidin-3-yl)-6-fluoro-1,3-dioxoisoindolin-5-yl)piperidin-4-carbonyl)piperidin-4-yl)methyl)piperazin-1-yl)phenyl)amino)-9H-purin-9-yl)cyclobutyl)picolinamide], in test [1], the “Enzyme degradation CDK2 (% remaining) @ 0.1 μM” value was found to be 20%, the “Enzyme degradation CDK2 (% remaining) @ 1 μM” value is given as 20% and the “Enzyme degradation CDK2 (% remaining) @ 10 μM” value was 30%. Besides, in test [2], the “Enzyme degradation CDK9 (% remaining) @ 0.1 μM” value is on record as 0/0/0%, the “Enzyme degradation CDK9 (% remaining) @ 1 μM” value was 0/0/0% and the “Enzyme degradation CDK9 (% remaining) @ 10 μM” value is 0/0/0%.

Consider `Cc1cccc(C(=O)NC2CC(n3cnc4c(NCc5ccc(OCC6CCN(C(=O)COc7cccc8c7C(=O)N([C@H]7CCC(=O)NC7=O)C8=O)CC6)cc5)ncnc43)C2)n1` (stereo partly drawn) [Compound 107, N-((1s,3s)-3-(6-((4-((1-(2-((2-(2,6-dioxopiperidin-3-yl)-1,3-dioxoisoindolin-4-yl)oxy)acetyl)piperidin-4-yl)methoxy)benzyl)amino)-9H-purin-9-yl)cyclobutyl)-6-methylpicolinamide], for which, in test [1], the “Enzyme degradation CDK2 (% remaining) @ 0.1 μM” value was determined as 60%, the “Enzyme degradation CDK2 (% remaining) @ 1 μM” value worked out at 50% and the “Enzyme degradation CDK2 (% remaining) @ 10 μM” value was 100%. For the same compound, in test [2], the “Enzyme degradation CDK9 (% remaining) @ 0.1 μM” value turned out to be 90%, the “Enzyme degradation CDK9 (% remaining) @ 1 μM” value worked out at 20% and the “Enzyme degradation CDK9 (% remaining) @ 10 μM” value stood at 0%.

As to `Cc1cccc(C(=O)NC2CC(n3cnc4c(NCc5cccc(N6CCN(CC7CCN(C(=O)CNc8cccc9c8C(=O)N([C@H]8CCC(=O)NC8=O)C9=O)CC7)CC6)c5)ncnc43)C2)n1` (stereo partly drawn) [Compound 134, N-((1s,3s)-3-(6-((3-(4-((1-((2-(2,6-dioxopiperidin-3-yl)-1,3-dioxoisoindolin-4-yl)glycyl)piperidin-4-yl)methyl)piperazin-1-yl)benzyl)amino)-9H-purin-9-yl)cyclobutyl)-6-methylpicolinamide], in test [1], the “Enzyme degradation CDK2 (% remaining) @ 0.1 μM” value is recorded as 60%, the “Enzyme degradation CDK2 (% remaining) @ 1 μM” value is given as 50% and the “Enzyme degradation CDK2 (% remaining) @ 10 μM” value is on record as 50%. Further, in test [2], the “Enzyme degradation CDK9 (% remaining) @ 0.1 μM” value is recorded as 0/0/0%, the “Enzyme degradation CDK9 (% remaining) @ 1 μM” value is listed as 0/0/0% and the “Enzyme degradation CDK9 (% remaining) @ 10 μM” value was 0/0/0%.

On to `Cc1cccc(C(=O)N[C@H]2C[C@@H](n3cnc4c(NCc5ccc(OCC6CCN(C(=O)CNc7cccc8c7C(=O)N([C@H]7CCC(=O)NC7=O)C8=O)CC6)cc5)ncnc43)C2)n1` [Compound 109, N-((1s,3s)-3-(6-((4-((1-((2-(2,6-dioxopiperidin-3-yl)-1,3-dioxoisoindolin-4-yl)glycyl)piperidin-4-yl)methoxy)benzyl)amino)-9H-purin-9-yl)cyclobutyl)-6-methylpicolinamide], for which, in test [1], the “Enzyme degradation CDK2 (% remaining) @ 0.1 μM” value was 40%, the “Enzyme degradation CDK2 (% remaining) @ 1 μM” value turned out to be 60% and the “Enzyme degradation CDK2 (% remaining) @ 10 μM” value was found to be 70%. Besides, in test [2], the “Enzyme degradation CDK9 (% remaining) @ 0.1 μM” value is recorded as 0/0/0%, the “Enzyme degradation CDK9 (% remaining) @ 1 μM” value is 0/0/0% and the “Enzyme degradation CDK9 (% remaining) @ 10 μM” value is on record as 0/0/0%.

In the case of `O=C1CC[C@H](N2C(=O)c3ccc(N4CC(C(=O)N5CCC(CN6CCN(c7ccc(Nc8ncnc9c8ncn9[C@H]8C[C@@H](NC(=O)c9c(Cl)cccc9Cl)C8)cc7)CC6)CC5)C4)cc3C2=O)C(=O)N1` [Compound 394, 2,6-dichloro-N-((1s,3s)-3-(6-((4-(4-((1-(1-(2-(2,6-dioxopiperidin-3-yl)-1,3-dioxoisoindolin-5-yl)azetidin-3-carbonyl)piperidin-4-yl)methyl)piperazin-1-yl)phenyl)amino)-9H-purin-9-yl)cyclobutyl)benzamide], in test [1], the “Enzyme degradation CDK2 (% remaining) @ 0.1 μM” value is given as 20/20/20%, the “Enzyme degradation CDK2 (% remaining) @ 1 μM” value is 20/20/20% and the “Enzyme degradation CDK2 (% remaining) @ 10 μM” value is listed as 20/20/20%. For the same compound, in test [2], the “Enzyme degradation CDK9 (% remaining) @ 0.1 μM” value is on record as 0/0/0%, the “Enzyme degradation CDK9 (% remaining) @ 1 μM” value is listed as 0/0/0% and the “Enzyme degradation CDK9 (% remaining) @ 10 μM” value is given as 0/0/0%.
